Data published in ChEMBL document CHEMBL3046929, “Ethyl 4-[2-(6-Methyl-3-pyridyloxy)butyloxy]benzoate, a novel anti-juvenile hormone agent” (2003).
Calls of active or inactive are those of the source. The rule behind the calls is not given here.

How the values were obtained:
Bombyx mori [1] = assay: Anti-juvenile activity against newly molted third-instar larval stage of Bombyx mori Shunrei x shougetsu reared on artificial diet assessed as blackening of cuticle measured after third ecdysis; assay type: functional, organism-based
Bombyx mori [2] = assay: Anti-juvenile activity against newly molted fourth-instar larval stage of Bombyx mori Shunrei x shougetsu reared on artificial diet assessed as induction of precocious metamorphosis in presence of 20-hydroxyecdysone; assay type: functional
Bombyx mori [3] = assay: Anti-juvenile activity against newly molted third-instar larval stage of Bombyx mori Shunrei x shougetsu reared on artificial diet assessed as induction of precocious metamorphosis in presence of 20-hydroxyecdysone; assay type: functional
Bombyx mori [4] = assay: Anti-juvenile activity against newly molted fourth-instar larval stage of Bombyx mori Shunrei x shougetsu reared on artificial diet assessed as induction of precocious metamorphosis in presence of juvenile hormone agonist methoprene; assay type: functional
Bombyx mori [5] = assay: Anti-juvenile activity against newly molted third-instar larval stage of Bombyx mori Shunrei x shougetsu reared on artificial diet assessed as induction of precocious metamorphosis in presence of juvenile hormone agonist methoprene; assay type: functional
Bombyx mori [6] = assay: Anti-juvenile activity against newly molted third-instar larval stage of Bombyx mori Shunrei x shougetsu reared on artificial diet assessed as induction of precocious pupation at 1 to 100 ug/larva; assay type: functional, organism-based
Bombyx mori [7] = assay: Anti-juvenile activity against newly molted fourth-instar larval stage of Bombyx mori Shunrei x shougetsu reared on artificial diet assessed as induction of precocious pupation; assay type: functional, organism-based
Bombyx mori [8] = assay: Anti-juvenile activity against newly molted third-instar larval stage of Bombyx mori Shunrei x shougetsu reared on artificial diet assessed as induction of precocious metamorphosis at 100 ug/larva relative to control; assay type: functional
Bombyx mori [9] = assay: Anti-juvenile activity against newly molted third-instar larval stage of Bombyx mori Shunrei x shougetsu reared on artificial diet assessed as induction of precocious metamorphosis at 10 ug/larva relative to control; assay type: functional
Bombyx mori [10] = assay: Anti-juvenile activity against newly molted third-instar larval stage of Bombyx mori Shunrei x shougetsu reared on artificial diet assessed as induction of precocious metamorphosis at 1 ug/larva relative to control; assay type: functional
Bombyx mori [11] = assay: Anti-juvenile activity against newly molted third-instar larval stage of Bombyx mori Shunrei x shougetsu reared on artificial diet assessed as induction of precocious pupation at 100 ug; assay type: functional, organism-based
Bombyx mori [12] = assay: Anti-juvenile activity against newly molted fourth-instar larval stage of Bombyx mori Shunrei x shougetsu reared on artificial diet assessed as induction of precocious pupation at 100 ug; assay type: functional, organism-based
Bombyx mori [13] = assay: Anti-juvenile activity against newly molted third-instar larval stage of Bombyx mori Shunrei x shougetsu reared on artificial diet assessed as mortality at 100 ug/larva relative to control; assay type: functional

| SMILES | Activity (Bombyx mori [9]) | Activity (Bombyx mori [11]) | Activity (Bombyx mori [12]) | other results |
| --- | --- | --- | --- | --- |
| CCOC(=O)c1ccc(OCC(CC)Oc2ccc(C)nc2)cc1 (stereo unspecified) | 40% |  |  | Activity (Bombyx mori [1]): Active; Activity (Bombyx mori [2]): 84%; Activity (Bombyx mori [3]): 90%; Activity (Bombyx mori [4]): 0%; Activity (Bombyx mori [5]): 0%; Activity (Bombyx mori [6]): inactive; Activity (Bombyx mori [7]): inactive; Activity (Bombyx mori [8]): 83%; Activity (Bombyx mori [10]): 0% |
| CCC(COc1cccc(Cl)c1)Oc1ccc(C)nc1 (stereo unspecified) |  | inactive | inactive |  |
| CCc1ccc(OCC(CC)Oc2ccc(C)nc2)cc1 (stereo unspecified) |  | inactive | inactive |  |
| CCOC(=O)c1ccc(OCC(CC)OC(=O)C(C)(C)C)cc1 (stereo unspecified) | 23% |  |  | Activity (Bombyx mori [7]): inactive; Activity (Bombyx mori [8]): 0%; Activity (Bombyx mori [10]): 0% |
| CCC(COc1ccc(Cl)cc1)Oc1ccc(C)nc1 (stereo unspecified) |  | inactive | inactive |  |
| CCc1cccc(OCC(CC)Oc2ccc(C)nc2)c1 (stereo unspecified) |  | inactive | inactive |  |
| Cc1ccc(OCCOc2cccc(Cl)c2)cn1 | 0% |  |  | mortality (Bombyx mori [13]): 100% |
| CCOC(=O)c1cccc(OCC(CC)Oc2ccc(C)nc2)c1 (stereo unspecified) |  | inactive | inactive |  |
